{
  "source": "patent US6403647B1",
  "about": "“Pulsed administration of compositions for the treatment of blood disorders” (priority 1996, dated 2002)",
  "key": {"γ-globin expression": {"test_system": "γ-globin expression", "assay": "γ-globin mRNA by RNase protection in erythroid cell cultures of normal individuals", "type": "cell-based, human", "conditions": "for x increase: over ChFCS", "quoted_text": "Fetal globin production was determined in erythroid progenitor cells cultured in the presence or absence of test compositions. Erythroid cells were purified from blood obtained from a normal individual . […] Erythroid cell cultures were established with the following conditions: IMDM methylcellulose media, erythropoietin (3 U/ml), the human subjects' mononuclear cells, 30% charcoal-absorbed fetal calf serum, and the test compounds at varying micromolar concentrations.\nCompounds were tested for their ability to induce expression of fetal globin expression in erythroid cell cultures established from the peripheral blood of normal individuals. Colonies were harvested and assayed for globin mRNA following 14 days of culture. Each compound was tested in duplicate cultures from 2-4 individual human subjects. Globin expression was quantitated by RNase protection assay for % gamma globin as a fraction of total non-alpha globin (% gamma/gamma+beta globin mRNA)."}, "fetal globin": {"test_system": "fetal globin", "assay": "Fetal globin production in erythroid progenitor colonies (Bfu-e), sickle cell anemia patient", "type": "cell-based, human", "conditions": "controls 48% of non-α globin"}, "[1]": {"test_system": "system A transport of amino acids", "assay": "Uptake of 3H-methyl-aminoisobutyric acid (MeAIB) into erythroblasts", "type": "cell-based", "conditions": "2.0 mM; relative to untreated fetal liver erythroid cells", "experimental": "Erythroblasts were tested for alterations in uptake of radio-labelled amino acid (^3H-methyl-aminoisobutyric acid; MeAIB) in the presence of AB (arginine butyrate), AMHCA (α-methylhydrocinnamic acid), PAA (phenoxyacetic acid), and IBT (isobutyramide), each at 2.0 mM."}},
  "data": [
    {"compound": "CCCC(=O)NO", "note": "[butyryl hydroxamate]", "values": [
      {"measurement": "x increase", "setting": "γ-globin expression; 6 μM, group 1 (99-4, 99-5)", "result": 1.0, "unit": "x"},
      {"measurement": "γ/γ + β", "setting": "γ-globin expression; 6 μM, group 1, subject 99-4", "result": 2.29, "unit": "%"},
      {"measurement": "γ/γ + β", "setting": "γ-globin expression; 6 μM, group 1, subject 99-5", "result": 3.40, "unit": "%"},
      {"measurement": "γ/γ + β mean", "setting": "γ-globin expression; 6 μM, group 1, subjects 99-4, 99-5", "result": 2.85, "unit": "%"},
      {"measurement": "x increase", "setting": "γ-globin expression; 10 μM, group 1 (99-4, 99-5)", "result": 1.3, "unit": "x"},
      {"measurement": "γ/γ + β", "setting": "γ-globin expression; 10 μM, group 1, subject 99-4", "result": 3.44, "unit": "%"},
      {"measurement": "γ/γ + β", "setting": "γ-globin expression; 10 μM, group 1, subject 99-5", "result": 4.06, "unit": "%"},
      {"measurement": "γ/γ + β mean", "setting": "γ-globin expression; 10 μM, group 1, subjects 99-4, 99-5", "result": 3.75, "unit": "%"},
      {"measurement": "x increase", "setting": "γ-globin expression; 20 μM, group 1 (99-4, 99-5)", "result": 1.9, "unit": "x"},
      {"measurement": "γ/γ + β", "setting": "γ-globin expression; 20 μM, group 1, subject 99-4", "result": 4.43, "unit": "%"},
      {"measurement": "γ/γ + β", "setting": "γ-globin expression; 20 μM, group 1, subject 99-5", "result": 6.06, "unit": "%"},
      {"measurement": "γ/γ + β mean", "setting": "γ-globin expression; 20 μM, group 1, subjects 99-4, 99-5", "result": 6.25, "unit": "%"},
      {"measurement": "x increase", "setting": "γ-globin expression; 20 μM, group 2 (99-6, 99-7)", "result": 1.0, "unit": "x"},
      {"measurement": "γ/γ + β", "setting": "γ-globin expression; 20 μM, group 2, subject 99-6", "result": 8.65, "unit": "%"},
      {"measurement": "γ/γ + β", "setting": "γ-globin expression; 20 μM, group 2, subject 99-7", "result": 12.49, "unit": "%"},
      {"measurement": "γ/γ + β mean", "setting": "γ-globin expression; 20 μM, group 2, subjects 99-6, 99-7", "result": 10.57, "unit": "%"},
      {"measurement": "x increase", "setting": "γ-globin expression; 30 μM, group 1 (99-4, 99-5)", "result": 1.7, "unit": "x"},
      {"measurement": "γ/γ + β", "setting": "γ-globin expression; 30 μM, group 1, subject 99-4", "result": 4.12, "unit": "%"},
      {"measurement": "γ/γ + β", "setting": "γ-globin expression; 30 μM, group 1, subject 99-5", "result": 5.35, "unit": "%"},
      {"measurement": "γ/γ + β mean", "setting": "γ-globin expression; 30 μM, group 1, subjects 99-4, 99-5", "result": 4.74, "unit": "%"},
      {"measurement": "x increase", "setting": "γ-globin expression; 40 μM, group 1 (99-4, 99-5)", "result": 2.8, "unit": "x"},
      {"measurement": "γ/γ + β", "setting": "γ-globin expression; 40 μM, group 1, subject 99-5", "result": 7.72, "unit": "%"},
      {"measurement": "γ/γ + β mean", "setting": "γ-globin expression; 40 μM, group 1, subject 99-5 only", "result": 7.72, "unit": "%"},
      {"measurement": "x increase", "setting": "γ-globin expression; 40 μM, group 2 (99-6, 99-7)", "result": 1.5, "unit": "x"},
      {"measurement": "γ/γ + β", "setting": "γ-globin expression; 40 μM, group 2, subject 99-6", "result": 14.81, "unit": "%"},
      {"measurement": "γ/γ + β", "setting": "γ-globin expression; 40 μM, group 2, subject 99-7", "result": 17.39, "unit": "%"},
      {"measurement": "γ/γ + β mean", "setting": "γ-globin expression; 40 μM, group 2, subjects 99-6, 99-7", "result": 16.10, "unit": "%"},
      {"measurement": "x increase", "setting": "γ-globin expression; 60 μM, group 2 (99-6, 99-7)", "result": 4.1, "unit": "x"},
      {"measurement": "γ/γ + β", "setting": "γ-globin expression; 60 μM, group 2, subject 99-6", "result": 37.65, "unit": "%"},
      {"measurement": "γ/γ + β", "setting": "γ-globin expression; 60 μM, group 2, subject 99-7", "result": 51.04, "unit": "%"},
      {"measurement": "γ/γ + β mean", "setting": "γ-globin expression; 60 μM, group 2, subjects 99-6, 99-7", "result": 44.35, "unit": "%"},
      {"measurement": "x increase", "setting": "γ-globin expression; 80 μM, group 2 (99-6, 99-7)", "result": 4.7, "unit": "x"},
      {"measurement": "γ/γ + β", "setting": "γ-globin expression; 80 μM, group 2, subject 99-6", "result": 44.98, "unit": "%"},
      {"measurement": "γ/γ + β", "setting": "γ-globin expression; 80 μM, group 2, subject 99-7", "result": 55.39, "unit": "%"},
      {"measurement": "γ/γ + β mean", "setting": "γ-globin expression; 80 μM, group 2, subjects 99-6, 99-7", "result": 50.19, "unit": "%"},
      {"measurement": "x increase", "setting": "γ-globin expression; 100 μM, group 2 (99-6, 99-7)", "result": 5.3, "unit": "x"},
      {"measurement": "γ/γ + β", "setting": "γ-globin expression; 100 μM, group 2, subject 99-6", "result": 54.06, "unit": "%"},
      {"measurement": "γ/γ + β", "setting": "γ-globin expression; 100 μM, group 2, subject 99-7", "result": 60.90, "unit": "%"},
      {"measurement": "γ/γ + β mean", "setting": "γ-globin expression; 100 μM, group 2, subjects 99-6, 99-7", "result": 57.48, "unit": "%"}
    ]},
    {"compound": "CC(=Cc1ccccc1)C(=O)O", "note": "[α-methylcinnamic acid]", "values": [
      {"measurement": "increase in fetal globin over controls", "setting": "fetal globin", "result": 12, "unit": "%"}
    ]},
    {"compound": "diethyl butyric acid", "values": [
      {"measurement": "amino acid (MeAIB) uptake / transport", "setting": "[1]", "result": "did not inhibit amino acid transport"}
    ]},
    {"compound": "COCC(=O)O", "note": "[methoxyacetic acid]", "values": [
      {"measurement": "increase in fetal globin over controls", "setting": "fetal globin", "result": 3, "unit": "%"}
    ]}
  ]
}
